Values quoted from earlier work as cited in paper PMC9516332 (Frontiers in Oncology, 2022).
Read-outs that look alike come from different tables or passages of the source.

How the values were obtained:
Details in all cases: cited from earlier work
[1] = molecular target: panel of 255 wild-type kinases (Homo sapiens, UniProt Q13882)
[2] = molecular target: panel of 255 wild-type kinases (Homo sapiens, UniProt Q9UKE5)
[3] = molecular target: panel of 255 wild-type kinases (Homo sapiens, UniProt Q16620)
[4] = molecular target: T1, panel of 255 wild-type kinases (Homo sapiens, UniProt Q96PY6)
T1 sequence (Q96PY6 1-1258): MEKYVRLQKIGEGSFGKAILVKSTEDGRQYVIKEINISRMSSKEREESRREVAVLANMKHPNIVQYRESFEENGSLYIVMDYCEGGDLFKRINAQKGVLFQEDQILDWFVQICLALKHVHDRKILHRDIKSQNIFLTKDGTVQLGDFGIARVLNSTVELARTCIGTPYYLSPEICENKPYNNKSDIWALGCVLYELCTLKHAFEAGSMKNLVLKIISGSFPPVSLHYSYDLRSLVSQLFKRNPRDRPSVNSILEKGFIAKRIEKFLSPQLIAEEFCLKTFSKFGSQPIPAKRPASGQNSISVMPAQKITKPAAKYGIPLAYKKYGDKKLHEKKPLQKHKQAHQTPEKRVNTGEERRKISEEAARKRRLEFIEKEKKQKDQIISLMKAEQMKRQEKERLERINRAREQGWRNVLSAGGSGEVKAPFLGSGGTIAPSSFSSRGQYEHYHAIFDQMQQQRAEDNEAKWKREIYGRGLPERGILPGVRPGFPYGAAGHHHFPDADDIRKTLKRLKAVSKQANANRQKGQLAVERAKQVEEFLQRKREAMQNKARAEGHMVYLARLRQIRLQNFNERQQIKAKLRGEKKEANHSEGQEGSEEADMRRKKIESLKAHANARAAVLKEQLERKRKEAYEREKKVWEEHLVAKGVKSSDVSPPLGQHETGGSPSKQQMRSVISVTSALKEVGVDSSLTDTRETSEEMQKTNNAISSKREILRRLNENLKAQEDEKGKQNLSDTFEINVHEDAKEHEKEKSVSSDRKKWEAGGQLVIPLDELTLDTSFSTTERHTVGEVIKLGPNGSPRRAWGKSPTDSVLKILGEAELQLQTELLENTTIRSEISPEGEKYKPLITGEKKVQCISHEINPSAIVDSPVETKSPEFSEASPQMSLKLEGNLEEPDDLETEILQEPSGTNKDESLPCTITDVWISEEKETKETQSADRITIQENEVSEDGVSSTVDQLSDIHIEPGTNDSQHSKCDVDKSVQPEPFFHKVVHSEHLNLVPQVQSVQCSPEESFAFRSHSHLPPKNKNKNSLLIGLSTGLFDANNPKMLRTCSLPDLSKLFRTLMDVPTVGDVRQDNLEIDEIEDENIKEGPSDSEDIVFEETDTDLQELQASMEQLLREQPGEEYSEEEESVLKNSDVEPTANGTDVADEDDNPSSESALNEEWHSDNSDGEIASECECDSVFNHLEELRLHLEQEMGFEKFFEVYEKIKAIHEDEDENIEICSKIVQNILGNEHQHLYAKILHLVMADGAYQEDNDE

[5] = molecular target: panel of 255 wild-type kinases (Homo sapiens, UniProt P04626)
[6] = molecular target: T2, panel of 255 wild-type kinases (Homo sapiens, UniProt Q02156)
T2 sequence (Q02156 1-737): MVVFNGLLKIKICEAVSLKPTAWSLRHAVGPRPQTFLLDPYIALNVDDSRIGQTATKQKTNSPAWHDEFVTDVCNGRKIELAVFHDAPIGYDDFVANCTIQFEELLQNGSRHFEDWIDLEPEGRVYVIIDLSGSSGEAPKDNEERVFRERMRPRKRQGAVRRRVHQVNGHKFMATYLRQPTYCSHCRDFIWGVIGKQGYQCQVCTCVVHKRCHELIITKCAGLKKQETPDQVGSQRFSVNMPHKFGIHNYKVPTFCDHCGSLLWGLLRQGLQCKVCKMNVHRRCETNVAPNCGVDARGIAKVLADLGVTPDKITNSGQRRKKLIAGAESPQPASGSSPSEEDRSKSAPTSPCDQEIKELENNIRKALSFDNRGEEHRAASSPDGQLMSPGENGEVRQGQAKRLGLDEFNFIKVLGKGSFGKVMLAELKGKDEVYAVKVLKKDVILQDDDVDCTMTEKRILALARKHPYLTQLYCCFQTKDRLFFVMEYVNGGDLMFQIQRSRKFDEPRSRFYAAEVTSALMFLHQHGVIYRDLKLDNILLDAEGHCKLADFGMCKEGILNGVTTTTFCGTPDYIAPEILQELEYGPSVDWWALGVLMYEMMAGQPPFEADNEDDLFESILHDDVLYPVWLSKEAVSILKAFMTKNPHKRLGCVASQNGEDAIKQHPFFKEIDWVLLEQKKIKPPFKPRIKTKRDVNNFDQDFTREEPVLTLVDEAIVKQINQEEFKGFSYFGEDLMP

[7] = molecular target: panel of 255 wild-type kinases (Homo sapiens, UniProt Q9NYY3)
[8] = BRK kinase assay, 1 µmol/L single concentration, ref DOI: 10.1158/1535-7163.MCT-18-0877
[9] = kinase TNIK, 1 µmol/L single concentration, ref DOI: 10.1158/1535-7163.MCT-18-0877
[10] = kinase TRKB, 1 µmol/L single concentration, ref DOI: 10.1158/1535-7163.MCT-18-0877
[11] = NEK1, 1 µmol/L single concentration, ref DOI: 10.1158/1535-7163.MCT-18-0877
[12] = kinase HER2, 1 µmol/L single concentration, ref DOI: 10.1158/1535-7163.MCT-18-0877
[13] = kinase PKCε, 1 µmol/L single concentration, ref DOI: 10.1158/1535-7163.MCT-18-0877
[14] = kinase PLK2, 1 µmol/L single concentration, ref DOI: 10.1158/1535-7163.MCT-18-0877
[15] = BRK kinase assay, 1 µmol/L single concentration, ref DOI: 10.1371/journal.pone.0092146
[16] = kinase TRKB, 1 µmol/L single concentration, ref DOI: 10.1371/journal.pone.0092146
[17] = NEK1, 1 µmol/L single concentration, ref DOI: 10.1371/journal.pone.0092146
[18] = kinase PKCε, 1 µmol/L single concentration, ref DOI: 10.1371/journal.pone.0092146
[19] = kinase PLK2, 1 µmol/L single concentration, ref DOI: 10.1371/journal.pone.0092146
[20] = kinase TNIK, 1 µmol/L single concentration, ref DOI: 10.1371/journal.pone.0092146
[21] = kinase HER2, 1 µmol/L single concentration, ref DOI: 10.1371/journal.pone.0092146

SMILES	%-inhibition BRK [1, 8]	%-inhibition at 1 µmol/L, TNIK [2, 9]	%-inhibition at 1 µmol/L, TRKB [3, 10]	%-inhibition, NEK1 [4, 11]	%-inhibition at 1 µmol/L, HER2 [5, 12]	%-inhibition at 1 µmol/L, PKCε [6, 13]	%-inhibition at 1 µmol/L, PLK2 [7, 14]	%-inhibition BRK [1, 15]	%-inhibition at 1 µmol/L, TRKB [3, 16]	%-inhibition, NEK1 [4, 17]	%-inhibition at 1 µmol/L, PKCε [6, 18]	%-inhibition at 1 µmol/L, PLK2 [7, 19]	also measured
CC#CC(=O)N1CCC[C@H]1c1nc(-c2ccc(C(=O)Nc3ccccn3)cc2)c2c(N)nccn12 [acalabrutinib]	51%	-0.812%	14%	-7.46%	16%	-9%	2.47%	–	–	–	–	–	–
CCc1cc2c(cc1N1CCC(N3CCOCC3)CC1)C(C)(C)c1[nH]c3cc(C#N)ccc3c1C2=O [alectinib]	9%	31%	38%	5%	-1.77%	10%	6%	–	–	–	–	–	–
COc1cc(N2CCC(N3CCN(C)CC3)CC2)ccc1Nc1ncc(Cl)c(Nc2ccccc2P(C)(C)=O)n1 [brigatinib]	–	–	–	–	–	–	–	–	–	–	–	–	%-inhibition BRK [1]: 103%; %-inhibition at 1 µmol/L, TNIK [2]: 19%; %-inhibition at 1 µmol/L, TRKB [3]: 27%; %-inhibition, NEK1 [4]: 8%; %-inhibition at 1 µmol/L, HER2 [5]: 69%; %-inhibition at 1 µmol/L, PKCε [6]: 39%; %-inhibition at 1 µmol/L, PLK2 [7]: 0.275%
Cc1cc(Nc2ncc(Cl)c(Nc3ccccc3S(=O)(=O)C(C)C)n2)c(OC(C)C)cc1C1CCNCC1 [ceritinib]	98%	25%	20%	-1.68%	9%	11%	-3.54%	–	–	–	–	–	–
O=C(c1ccc(F)c(F)c1Nc1ccc(I)cc1F)N1CC(O)([C@@H]2CCCCN2)C1 [cobimetinib]	-1%	1.06%	-1.39%	4.29%	-1.21%	4.22%	-0.309%	–	–	–	–	–	–
C[C@@H](Oc1cc(-c2cnn(C3CCNCC3)c2)cnc1N)c1c(Cl)ccc(F)c1Cl [crizotinib]	–	–	–	–	–	–	–	15%	102%	2.24%	-7%	1.1%	%-inhibition at 1 µmol/L, TNIK [2]: 11%; %-inhibition at 1 µmol/L, HER2 [5]: -0.714%
CC(C)(C)c1nc(-c2cccc(NS(=O)(=O)c3c(F)cccc3F)c2F)c(-c2ccnc(N)n2)s1 [dabrafenib]	–	–	–	–	–	–	–	98%	86%	24%	5%	-4.64%	%-inhibition at 1 µmol/L, TNIK [2, 20]: 15%; %-inhibition at 1 µmol/L, HER2 [5, 21]: 50%
C=CC(=O)N1CCC[C@@H](n2nc(-c3ccc(Oc4ccccc4)cc3)c3c(N)ncnc32)C1 [ibrutinib]	–	-1.62%	26%	3.73%	100%	8%	1.72%	–	–	–	–	–	%-inhibition BRK [1]: 103%
CO[C@@H]1[C@H](N(C)C(=O)c2ccccc2)C[C@H]2O[C@]1(C)n1c3ccccc3c3c4c(c5c6ccccc6n2c5c31)C(=O)NC4 [midostaurin]	11%	94%	99%	13%	63%	84%	2.68%	–	–	–	–	–	–
C=CC(=O)Nc1cc(Nc2nccc(-c3cn(C)c4ccccc34)n2)c(OC)cc1N(C)CCN(C)C [osimertinib]	101%	84%	-0.7%	2.43%	100%	-12%	1.06%	–	–	–	–	–	–
CC(=O)Nc1cccc(-n2c(=O)n(C3CC3)c(=O)c3c(Nc4ccc(I)cc4F)n(C)c(=O)c(C)c32)c1 [trametinib]	–	–	–	–	–	–	–	-5.53%	-3.4%	-5%	6%	-1.65%	%-inhibition at 1 µmol/L, TNIK [2, 20]: 3%; %-inhibition at 1 µmol/L, HER2 [5, 21]: -5.36%
CCCS(=O)(=O)Nc1ccc(F)c(C(=O)c2c[nH]c3ncc(-c4ccc(Cl)cc4)cc23)c1F [vemurafenib]	–	–	–	–	–	–	–	98%	11%	-2.74%	-8%	-1.85%	%-inhibition at 1 µmol/L, TNIK [2, 20]: 33%; %-inhibition at 1 µmol/L, HER2 [5, 21]: 2%
